In patent US11202836B2, “PSMA targeted conjugate compounds and uses thereof” (CASE WESTERN RESERVE UNIVERSITY, priority 2018, dated 2021):
“And” between values parts separate entries of the source, which are not always exact repeats. Equal values may be shown once. *1 amine or outer side, *2 acyl side, *3 side chain or, on linkers, in order; H or OH if unused. Where a SMILES comes first, the peptide text is derived from it. Bridges are numbered along the chain shown (N, C = ends). Roman numbers before positions name the chains, in order. [ ]: non-standard residue; d: D form. The star is where a group is joined. ξ: configuration not given here. X2 = CN1/C(=C/C=C/C=C/C2=[N+](CCCCCC(=O)*)c3ccc4ccccc4c3C2(C)C)C(C)(C)c2c1ccc1ccccc21; Hexanoyl(6-succinimido-3yl) = O=C1CC([*:1])C(=O)N1CCCCCC(=O)[*:2]; X3 = CC[C@H](C)[C@@H]([C@H](CC(=O)[*:2])OC)N(C)[*:1]; Dolaproine = CO[C@@H]([C@@H]1CCCN1)[C@@H](C)C(=O)O; Dil = CC[C@H](C)[C@H](NC)[C@@H](CC(=O)O)OC; PABC = O=C(OCc1ccc(N[*:1])cc1)[*:2]; ξγGlu = O=C(O)C(CCC(=O)[*:2])N[*:1]; X4 = C[C@@H](N*)[C@@H](O)c1ccccc1; X1 = O=C(C1CCC(CN[*:1])CC1)[*:2]; Cit = NC(=O)NCCC[C@H](N)C(=O)O; NMeV = CN[C@H](C(=O)O)C(C)C; ξE = NC(CCC(=O)O)C(=O)O; CO = O=C([*:1])[*:2]; ξK = NCCCCC(N)C(=O)O; Ahx = NCCCCCC(=O)O; ξC = NC(CS)C(=O)O

What was measured:
PC3pip cells = test: In vitro cytotoxicity assay (CCK-8, 72 h), PSMA-positive cells; type: cell-based
Experimental: Cells (1,000/well) were seeded in 96-well culture plates the day before treatment. Cells were incubated with various concentrations of drugs for 72 hours and cell viability evaluated by CCK-8 (Dojindo). The concentration required to reach 50% of cell proliferation was determined (IC50) by GraphPad Prism 3.0.

α-tubulin = test: Immunofluorescence analysis of alpha-tubulin in PC3pip and PC3flu cells; type: cell-based; details: 5 nM, 24 hours
Experimental: Cells on coverslips at about 70% confluency were incubated with 5 nM of MMAE, PSMA-1-VcMMAE-Cy5.5 or PSMA-1-McMMAE-Cy5.5 for 24 hours. Cells were washed and fixed with 4% paraformaldehyde for 10 minutes, permeabilized with 0.1% Triton™ X-100 for 10 minutes, and blocked with 1% BSA for 1 hour at room temperature. Alpha-tubulin (B5-1-2) Alexa Fluor 488 Mouse Monoclonal Antibody (Invitrogen) was then added at 2 μg/mL in 0.1% BSA and incubated for 3 hours at room temperature. Cells were counterstained with DAPI, mounted with Fluor-Mount aqueous mounting solution, and observed under Leica DM4000B fluorescence microscopy at 40×.

[1] = Maximum tolerated dose (single i.v. dose); type: in vivo, mice; details: single dose i.v., tumor-free athymic nude mice, 14 days
Source text: Mice were monitored daily for 14 days.

[2] = test system: heterotopic PC3pip tumors; test: Heterotopic PC3pip tumor survival / antitumor study; type: in vivo; details: for tumor growth: 160 nmol/kg i.v. every 4 days
Source text: Male athymic nude mice were implanted subcutaneously with 1×10^6 of PC3pip cells under the right dorsum of the mice. When tumor size reached approximately 100 mm^3 (tumor volume=Length×width^2/2), mice received drugs through tail vein injection. […] Animals were weighed and tumor size measured every other day for 90 days. Cures were defined as no tumor present at end of the 90-day study. When tumors became too large or animals were moribund they were euthanized. Five mice were used in each group.

cathepsin B = target: T1, cathepsin B (Homo sapiens, UniProt P07858); test: Enzymatic cleavage by cathepsin B (HPLC); type: in vitro ADME; details: human, activated human liver cathepsin B solution; 2 μM conjugate, 37° C.; read-out: half-life in the presence of cathepsin B (converted)
T1 construct: purchased Anthens Research and Technology; host or cells: human liver (tissue-derived enzyme)
Experimental: (§1) PSMA-1-VcMMAE-Cy5.5 or PSMA-1-McMMAE-Cy5.5 was added to 500 μL of activated human liver cathepsin B (Anthens Research and Technology) solution (46) to a final concentration of 2 μM and incubated at 37° C. At different time intervals, 40 μL of the solution was taken out into tubes loaded with 1 μL of 1 mM E64 protease inhibitor. The mixture was vortexed and then stored at −80° C. for future HPLC analysis to assess degradation of PSMA-1-VcMMAE-Cy5.5 or PSMA-1-McMMAE-Cy5.5. Studies were performed in triplicate.

human liver cathepsin B = target: T2, human liver cathepsin B (Homo sapiens, UniProt P07858); test: Enzymatic cleavage by cathepsin B (HPLC); type: in vitro ADME; details: 2 μM conjugate, 37° C.
T2 construct: purchased Anthens Research and Technology; host or cells: human liver (tissue-derived enzyme)
Experimental: as §1

orthotopic PC3pip tumors = test: Orthotopic PC3pip tumor survival study; type: in vivo, mice
Experimental: Surgical orthotopic tumor implantation was performed as previously reported. Tumor growth/size was monitored using Siemens Acuson […] ultrasound scanner. When the tumors were at the appropriate size (5 mm as measured by ultrasound, approximately 2 weeks) animals were given PSMA-1-VcMMAE, PSMA-1-VcMMAE-Cy5.5, or PBS every four days with a total of 5 doses. Tumors were monitored every other day by ultrasound. Each group had five mice.

[3] = Stability of conjugates incubated in PBS without enzyme (HPLC); type: physicochemical; details: no enzyme
Experimental: as §1
To investigate if PSMA-targeted drug conjugates were cleavable by cathepsin B, the two conjugates were incubated with or without the enzyme and chromatographed by HPLC. When the conjugates were incubated with PBS, both PSMA-1-VcMMAE-Cy5.5 and PSMA-1-McMMAE-Cy5.5 were stable (FIG. 11D).

metastatic PC3pip model = test: Metastatic PC3pip survival study (intracardiac GFP-PC3pip); type: in vivo, mice; details: 160 nmol/kg every 4 days, 5 doses
Experimental: Male athymic nude mice were injected into the left ventricle of the heart with 1×10^5 GFP labeled PC3pip cells to generate bone metastasis. One week later mice received 160 nmol/kg PSMA-1-VcMMAE-Cy5.5 or PBS every 4 days with a total of 5 doses and the progression of disease was monitored by GFP imaging. Five mice were used in each group.

heterotopic C4-2 tumors = test: Heterotopic C4-2 tumor study; parameters: species or system mice; details: mouse, in vivo
Source text: To show versatility of the antitumor activity of PSMA-1-VcMMAE-Cy5.5, we tested it in mice bearing heterotopic C4-2 tumors, which are androgen-independent prostate cancer cells endogenously expressing PSMA.

PC3pip and PC3flu tumors = test: In vivo NIR imaging of mice bearing PC3pip and PC3flu tumors; details: 40 nmol/kg i.v.
Experimental: Under guidelines of the animal care and use committee at Case Western Reserve University (IACUC #150033) 6 to 8-week old male Balb/cathymic nude mice were implanted subcutaneously with 1×10^6 of PC3flu and PC3pip on the left and right dorsum respectively. Mice received 40 nmol/kg of PSMA-1-VcMMAE-Cy5.5 or PSMA-1-McMMAE-Cy5.5 in PBS via tail vein injection when tumors reached 10 mm in diameter. Fluorescence imaging was performed using the Maestro In Vivo Imaging system (Perkin-Elmer). Multispectral images were unmixed into their component spectra (PSMA probes, autofluorescence, and background) to quantitate the average fluorescence intensity associated with the tumors using regions of interest (ROIs) around the tumors.

CC[C@H](C)[C@@H]([C@@H](CC(=O)N1CCC[C@H]1[C@H](OC)[C@@H](C)C(=O)N[C@H](C)[C@@H](O)c1ccccc1)OC)N(C)C(=O)[C@@H](NC(=O)[C@@H](NC)C(C)C)C(C)C [MMAE, monomethyl auristatin E, reference compound] (H-[NMeV]V[Dil][Dolaproine]-X4)
selectivity, differential cytotoxicity PC3pip vs PC3flu cells (PC3pip cells; 72 hours, PC3flu IC50 over PC3pip IC50): no selectivity | disruption of α-tubulin (α-tubulin): non-selective tubulin disruption | maximum tolerated dose (MTD) [1]: 700 nmol/kg | time by which all mice died ([2]; 160 nmol/kg): ≤ 36 days | tumor growth ([2]; 5 doses): relatively ineffective at inhibiting tumor growth

CC[C@H](C)[C@@H]([C@H](CC(=O)N1CCC[C@H]1[C@H](OC)[C@@H](C)C(=O)N[C@H](C)[C@@H](O)c1ccccc1)OC)N(C)C(=O)[C@@H](NC(=O)[C@H](C(C)C)N(C)C(=O)OCc1ccc(NC(=O)[C@H](CCCNC(N)=O)NC(=O)[C@@H](NC(=O)CCCCCN2C(=O)CC(SCC(NC(=O)C(CCC(=O)O)NC(=O)C(CCC(=O)O)NC(=O)C(CCC(=O)O)NC(=O)CCCCCNC(=O)C3CCC(CNC(=O)CCC(NC(=O)NC(CCC(=O)O)C(=O)O)C(=O)O)CC3)C(=O)NCCCCCC(=O)NC(CCCCNC(=O)CCCCC[N+]3=C(/C=C/C=C/C=C4/N(C)c5ccc6ccccc6c5C4(C)C)C(C)(C)c4c3ccc3ccccc43)C(N)=O)C2=O)C(C)C)cc1)C(C)C (stereo partly shown) [PSMA-1-VcMMAE-Cy5.5] (I: {ξE-CO-ξγGlu}-[X1][Ahx][ξE][ξE][ξE][ξC][Ahx][ξK](X2)-NH2 / II: V[Cit][PABC][NMeV]V[X3][Dolaproine]-X4; linker I:6-II:N via Hexanoyl(6-succinimido-3yl))
potency to kill PC3pip cells in the presence of PSMA-1 ligand (PC3pip cells; 10 μM of PSMA-1): reduced to the same potency to kill PC3flu cells | IC50 (PC3pip cells; 72 hours, CCK-8): 0.84 nM and 0.75 nM | effect of protease inhibitor E64 on cell killing potency (PC3pip cells; co-incubation with 50 μM E64): reduced the potency | half-life at 2 μM (cathepsin B): 19.8 min | cleavage in the presence of cathepsin B (human liver cathepsin B): degraded rapidly | cure at day 90 (orthotopic PC3pip tumors; every four days, 5 doses): 40% | body weight loss (orthotopic PC3pip tumors; mouse, in vivo): No significant body weight loss | disruption of α-tubulin (α-tubulin): selective disruption of tubulin in PC3pip cells but not in PC3flu cells | MTD at 14 days ([1]; male, mouse, in vivo, iv): 0.48 µmol/kg | stability when incubated with PBS [3]: stable | cure rate (no tumors at end of study) ([2]; 160 nmol/kg every 4 days, 5 doses, 90 days): 60% | tumor growth ([2]; 5 doses): effectively inhibited tumor growth as early as day 6 | tumor growth when given every 7 days ([2]; every 7 days, model not stated): greatly inhibited tumor growth | lowest dose effectively inhibiting tumor growth ([2]; mouse, in vivo): 80 nmol/kg | animal survival (metastatic PC3pip model): all 5 treated mice survived the 90-day experimental period | body weight loss (metastatic PC3pip model): no significant body weight loss | response (no GFP signal) (metastatic PC3pip model): 100% | cure rate (heterotopic C4-2 tumors): 40% | weight loss (heterotopic C4-2 tumors): no weight loss | time of peak uptake in PC3pip tumors post-injection (PC3pip and PC3flu tumors): 24 h
